Test results taken from patent US20110086759A1, “CHEMICAL COMPOUNDS” (SYNGENTA CROP PROTECTION, INC., priority 2007, published 2011).

How the values were obtained:
Format in all cases: in vivo
[1] = system: Alopecurus myosuroides (ALOMY); assay: Pre-emergence biological efficacy, glasshouse pot test; settings: 312 h
Procedure: (§1) Seeds of Alopecurus myosuroides (ALOMY), Setaria faberi (SETFA), Echinochloa crus-galli (ECHCG), Solanum nigrum (SOLNI), Amaranthus retoflexus (AMARE) and Ipomea hederaceae (IPOHE) were sown in standard soil in pots. After cultivation for one day under controlled conditions in a glasshouse (at 24/16° C., day/night; 14 hours light; 65% humidity), the plants were sprayed with an aqueous spray solution derived from the formulation of the technical active ingredient in acetone/water (50:50) solution containing 0.5% Tween 20 (polyoxyethelyene sorbitan monolaurate, CAS RN 9005-64-5) to give a final dose of 1000 or 250 g/ha of test compound.
(§2) The test plants were then grown under controlled conditions in the glasshouse (at 24/16° C., day/night; 14 hours light; 65% humidity) and watered twice daily. After 13 days the test was evaluated (100=total damage to plant; 0=no damage to plant).

[2] = system: Amaranthus retoflexus (AMARE); assay: as above; settings: Amaranthus retroflexus, 312 h
Procedure: as §1, §2

[3] = system: Echinochloa crus-galli (ECHCG); assay: as above; settings: 312 h
Procedure: as §1, §2

[4] = system: Ipomea hederaceae (IPOHE); assay: as above; settings: Ipomoea hederacea, 312 h
Procedure: as §1, §2

Setaria faberi (SETFA) [5] = assay: as above; settings: 312 h
Procedure: as §1, §2

Solanum nigrum (SOLNI) [6] = assay: as above; settings: 312 h
Procedure: as §1, §2

[7] = system: Alopecurus myosuroides (ALOMY); assay: Post-emergence biological efficacy, glasshouse pot test; settings: 312 h
Procedure: as §1, with “8 days” for “one day”
(§3) The test plants were then grown on under controlled conditions in a glasshouse (at 24/16° C., day/night; 14 hours light; 65% humidity) and watered twice daily. After 13 days the test was evaluated (100=total damage to plant; 0=no damage to plant).

[8] = system: Amaranthus retoflexus (AMARE); assay: as above; settings: Amaranthus retroflexus, 312 h
Procedure: as §1, with “8 days” for “one day”
as §3

[9] = system: Echinochloa crus-galli (ECHCG); assay: as above; settings: 312 h
Procedure: as §1, with “8 days” for “one day”
as §3

[10] = system: Ipomea hederaceae (IPOHE); assay: as above; settings: Ipomoea hederacea, 312 h
Procedure: as §1, with “8 days” for “one day”
as §3

Setaria faberi (SETFA) [11] = assay: as above; settings: 312 h
Procedure: as §1, with “8 days” for “one day”
as §3

Solanum nigrum (SOLNI) [12] = assay: as above; settings: 312 h
Procedure: as §1, with “8 days” for “one day”
as §3

[13] = pre-emergence, rate 1,000 g/ha, evaluated after 13 days (100=total damage to plant; 0=no damage), read-out: Percentage damage caused to weed species, ALOMY
[14] = pre-emergence, rate 1,000 g/ha, evaluated after 13 days (100=total damage to plant; 0=no damage), read-out: Percentage damage caused to weed species, AMARE
[15] = pre-emergence, rate 1,000 g/ha, evaluated after 13 days (100=total damage to plant; 0=no damage), read-out: Percentage damage caused to weed species, ECHCG
[16] = pre-emergence, rate 1,000 g/ha, evaluated after 13 days (100=total damage to plant; 0=no damage), read-out: Percentage damage caused to weed species, IPOHE
[17] = pre-emergence, rate 1,000 g/ha, evaluated after 13 days (100=total damage to plant; 0=no damage), read-out: Percentage damage caused to weed species, SETFA
[18] = pre-emergence, rate 1,000 g/ha, evaluated after 13 days (100=total damage to plant; 0=no damage), read-out: Percentage damage caused to weed species, SOLNI
[19] = Rate 1,000 g/ha, post-emergence spray, evaluated after 13 days (100=total damage to plant; 0=no damage to plant), read-out: Percentage damage caused to weed species, post-emergence, ALOMY
[20] = Rate 1,000 g/ha, post-emergence spray, evaluated after 13 days (100=total damage to plant; 0=no damage to plant), read-out: Percentage damage caused to weed species, post-emergence, AMARE
[21] = Rate 1,000 g/ha, post-emergence spray, evaluated after 13 days (100=total damage to plant; 0=no damage to plant), read-out: Percentage damage caused to weed species, post-emergence, ECHCG
[22] = Rate 1,000 g/ha, post-emergence spray, evaluated after 13 days (100=total damage to plant; 0=no damage to plant), read-out: Percentage damage caused to weed species, post-emergence, IPOHE
[23] = Rate 1,000 g/ha, post-emergence spray, evaluated after 13 days (100=total damage to plant; 0=no damage to plant), read-out: Percentage damage caused to weed species, post-emergence, SETFA
[24] = Rate 1,000 g/ha, post-emergence spray, evaluated after 13 days (100=total damage to plant; 0=no damage to plant), read-out: Percentage damage caused to weed species, post-emergence, SOLNI
[25] = pre-emergence, 1,000 g/ha, evaluated after 13 days (100=total damage; 0=no damage), read-out: Percentage damage ALOMY
[26] = pre-emergence, 1,000 g/ha, evaluated after 13 days (100=total damage; 0=no damage), read-out: Percentage damage AMARE
[27] = pre-emergence, 1,000 g/ha, evaluated after 13 days (100=total damage; 0=no damage), read-out: Percentage damage ECHCG
[28] = pre-emergence, 1,000 g/ha, evaluated after 13 days (100=total damage; 0=no damage), read-out: Percentage damage IPOHE
[29] = pre-emergence, 1,000 g/ha, evaluated after 13 days (100=total damage; 0=no damage), read-out: Percentage damage SETFA
[30] = pre-emergence, 1,000 g/ha, evaluated after 13 days (100=total damage; 0=no damage), read-out: Percentage damage SOLNI
[31] = post-emergence, 1,000 g/ha, evaluated after 13 days (100=total damage; 0=no damage), read-out: Percentage damage caused to weed species, ALOMY
[32] = post-emergence, 1,000 g/ha, evaluated after 13 days (100=total damage; 0=no damage), read-out: Percentage damage caused to weed species, AMARE
[33] = post-emergence, 1,000 g/ha, evaluated after 13 days (100=total damage; 0=no damage), read-out: Percentage damage caused to weed species, ECHCG
[34] = post-emergence, 1,000 g/ha, evaluated after 13 days (100=total damage; 0=no damage), read-out: Percentage damage caused to weed species, IPOHE
[35] = post-emergence, 1,000 g/ha, evaluated after 13 days (100=total damage; 0=no damage), read-out: Percentage damage caused to weed species, SETFA
[36] = post-emergence, 1,000 g/ha, evaluated after 13 days (100=total damage; 0=no damage), read-out: Percentage damage caused to weed species, SOLNI

Compound | pest or weed control at 1000 g/ha [1, 13] [%] | pest or weed control at 1000 g/ha [2, 14] [%] | pest or weed control at 1000 g/ha [3, 15] [%] | pest or weed control at 1000 g/ha [4, 16] [%] | pest or weed control at 1000 g/ha (Setaria faberi (SETFA) [5]; [17]) [%] | pest or weed control at 1000 g/ha (Solanum nigrum (SOLNI) [6]; [18]) [%] | pest or weed control at 1000 g/ha [7, 19] [%] | pest or weed control at 1000 g/ha [8, 20] [%] | pest or weed control at 1000 g/ha [9, 21] [%] | pest or weed control at 1000 g/ha [10, 22] [%] | pest or weed control at 1000 g/ha (Setaria faberi (SETFA) [11]; [23]) [%] | pest or weed control at 1000 g/ha (Solanum nigrum (SOLNI) [12]; [24]) [%] | pest or weed control at 1000 g/ha [1, 25] [%] | pest or weed control at 1000 g/ha [2, 26] [%] | pest or weed control at 1000 g/ha [3, 27] [%] | pest or weed control at 1000 g/ha [4, 28] [%] | pest or weed control at 1000 g/ha (Setaria faberi (SETFA) [5]; [29]) [%] | pest or weed control at 1000 g/ha (Solanum nigrum (SOLNI) [6]; [30]) [%] | pest or weed control at 1000 g/ha [7, 31] [%] | pest or weed control at 1000 g/ha [8, 32] [%] | further results
COC(=O)c1nc(-c2ccc(F)c(Cl)c2)nc(NCc2ccco2)c1Cl [Compound 245-48, 5-Chloro-2-(3-chloro-4-fluorophenyl)-4-(furan-2-yl-methyl-amino)-6-methoxy-carbonylpyrimidine] | 30 | 80 | 30 | 20 | 30 | 10 | 20 | 100 | 40 | 60 | 70 | 90 | – | – | – | – | – | – | – | – | –
COC(=O)c1nc(-c2ccc(Cl)cc2F)nc(NCc2ccco2)c1Cl [Compound 218-48, 5-Chloro-2-(4-chloro-2-fluorophenyl)-4-(furan-2-yl-methyl-amino)-6-methoxy-carbonylpyrimidine] | 70 | 100 | 50 | 50 | 70 | 90 | 60 | 100 | 60 | 90 | 80 | 90 | – | – | – | – | – | – | – | – | –
CCN(Cc1ccc(OC)c(OC)c1)c1nc(C2CC2)nc(C(=O)OC)c1Cl [Compound 6-112, 5-Chloro-2-cyclopropyl-4-[N-(3,4-dimethoxy-phenylmethyl)-N-ethyl-amino]-6-methoxycarbonyl-pyrimidine] | 10 | 60 | 10 | 60 | 0 | 10 | 30 | 100 | 70 | 80 | 80 | 80 | – | – | – | – | – | – | – | – | –
COC(=O)c1nc(C2CC2)nc(NCC(C)c2ccc(Cl)cc2)c1Cl (stereo not drawn) [Compound 4-233, 5-Chloro-4-[2-(4-chlorophenyl)propyl-amino]-2-cyclopropyl-6-methoxycarbonyl-pyrimidine] | – | – | – | – | – | – | – | – | – | – | – | – | 0 | 40 | 0 | 10 | 0 | 20 | 10 | 100 | pest or weed control at 1000 g/ha [9, 33]: 20%; pest or weed control at 1000 g/ha [10, 34]: 60%; pest or weed control at 1000 g/ha (Setaria faberi (SETFA) [11]; [35]): 50%; pest or weed control at 1000 g/ha (Solanum nigrum (SOLNI) [12]; [36]): 80%
COC(=O)c1nc(C2CC2)nc(NCc2cccc(I)c2)c1Cl [Compound 4-70, 5-Chloro-2-cyclopropyl-4-(3-iodophenylmethyl-amino)-6-methoxy-carbonylpyrimidine] | – | – | – | – | – | – | – | – | – | – | – | – | 10 | 40 | 30 | 60 | 20 | 30 | 20 | 100 | pest or weed control at 1000 g/ha [9, 33]: 70%; pest or weed control at 1000 g/ha [10, 34]: 100%; pest or weed control at 1000 g/ha (Setaria faberi (SETFA) [11]; [35]): 90%; pest or weed control at 1000 g/ha (Solanum nigrum (SOLNI) [12]; [36]): 100%
COC(=O)c1nc(C2CC2)nc(NC(C(=O)OC)c2ccccc2)c1Cl (stereo not drawn) [Compound 4-210, 5-Chloro-2-cyclopropyl-6-methoxycarbonyl-4-(1-methoxy-carbonyl-1-phenyl-methylamino)-pyrimidine] | – | – | – | – | – | – | – | – | – | – | – | – | 20 | 100 | 50 | 100 | 20 | 90 | 60 | 50 | pest or weed control at 1000 g/ha [9, 33]: 60%; pest or weed control at 1000 g/ha [10, 34]: 40%; pest or weed control at 1000 g/ha (Setaria faberi (SETFA) [11]; [35]): 80%; pest or weed control at 1000 g/ha (Solanum nigrum (SOLNI) [12]; [36]): 40%
